Data on four compounds can be found in US20250282799A1, “SUBSTITUTED PYRIDO[4,3-d]PYRIMIDINES AS KRAS MODULATORS” (Alterome Therapeutics, Inc., priority 2023, published 2025).

Series [1] in a line: Pharmacokinetic evaluation, single dosing (oral and intravenous) in rats. In kind it is in vivo, male Sprague-Dawley rats. Also noted: unit not given here. The conditions noted are these: rat, plasma. Here is the method:
Pharmacokinetic profile for test compound was measured by single dosing in male Sprague-Dawley rats. Animal weights were typically over 200 grams, and animals were allowed to acclimate to their new environment for at least 3 days prior to the initiation of any studies. One set of animals was dosed intravenous with test compound, 2 mg/kg in 20% PEG400, 10% HS-15 Solutol, 70% 50 mM citrate buffer (pH 4.0). Intravenous dosing solution concentration was 1.0 mg/mL. Time of blood sampling was 5 minutes, 15 minutes, 30 minutes, 1 hour, 2 hours, 4 hours, 8 hours, and 24 hours following intravenous dosing. Another set of animals was dosed orally with test compound, 30 mg/kg in 20% PEG400, 10% HS-15 Solutol, 70% 50 mM citrate buffer (pH 4.0). Oral dosing solution concentration was 3.0 mg/mL. Time of blood sampling was 15 minutes, 30 minutes, 1 hour, 2 hours, 4 hours, 8 hours, and 24 hours following oral dosing. Blood samples (˜0.2 mL/sample) were collected via jugular vein and placed in tubes containing Heparin-Na. The blood samples in tubes were mixed and then placed on wet ice prior to centrifugation for plasma. The blood samples were centrifuged at 4000 g for 5 minutes at 4° C. to obtain plasma. The obtained plasma was separated and stored frozen at approximately −80° C.
All the plasma samples were analyzed using a Shimadzu (DGU-405) HPLC with an API 6500+MS/MS system following the manufacturer's instructions. All the analytes were detected with positive-mode electrospray ionization (ES+). A standard curve for each test compound was generated and used to measure test compound concentrations in the rat plasma samples. Based on the time course sampling, an area under the curve (AUC) was calculated for the oral group and intravenous group. The percentage of rat bioavailability is calculated based on the equation shown below.
where F is bioavailability, AUCPO is area under curve of oral dosing, AUCIV is area under curve of intravenous dosing, DoseIV is the intravenous dose and DosePO is the oral dose. The oral dosing for the experiments presented in Table 5 was performed at 10 mg/kg unless noted otherwise.

Series [2] relates to KRAS G12V dependent lung adenocarcinoma cell line, NCI-H441. The series can be described thus: Cellular pERK (Thr202/Tyr204) FRET/HTRF assay. The note with it: Homo sapiens, NCI-H441, pERK HTRF, NCI-H441 cells (KRAS G12V). In kind it is cell-based. In short, it runs like this:
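NCI-H441, overnight plating → cpd 1 hr, 37 °C/5% CO2; DMSO neg ctrl. Lyse (phosphatase inhibitors), add donor/acceptor Abs, RT incubation, HTRF read. IC50 by curve fit.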
In general terms: Time-resolved FRET reads energy transfer from a long-lived donor to a nearby acceptor.

As a reminder, the IC50 is the midpoint of a concentration-inhibition curve. With `[2H]C([2H])(Oc1nc(N2CCCC[C@H]3[C@H](F)[C@H]32)c2cnc(-c3cc(N)cc4cc(F)c(F)c(C#C)c34)c(F)c2n1)[C@@]12CCCN1C[C@H](F)C2` [Example 16, 5-Ethynyl-6,7-difluoro-4-(8-fluoro-4-((1S,7R,8S)-8-fluoro-2-azabicyclo[5.1.0]octan-2-yl)-2-(((2R,7aS)-2-fluorotetrahydro-1H-pyrrolizin-7a(5H)-yl)methoxy-d2)pyrido[4,3-d]pyrimidin-7-yl)naphthalen-2-amine], in series [1], the “IV (dose 2 mg/kg) (AUC/D) (h*mg/mL)” value is 718. The “PO (dose 10 mg/kg) (AUC/D) (h*mg/mL)” value in series [1] (oral) stood at 75. In series [2], the IC50 is less than 50 nM.

In the case of `[2H]C([2H])(Oc1nc(N2CCOC[C@H]3[C@H](F)[C@H]32)c2cnc(-c3cc(N)cc4cc(F)c(F)c(C#C)c34)c(F)c2n1)[C@@]12CCCN1C[C@H](F)C2` [Example 28, 5-Ethynyl-6,7-difluoro-4-(8-fluoro-4-((1S,7S,8S)-8-fluoro-5-oxa-2-azabicyclo[5.1.0]octan-2-yl)-2-(((2R,7aS)-2-fluorotetrahydro-1H-pyrrolizin-7a(5H)-yl)methoxy-d2)pyrido[4,3-d]pyrimidin-7-yl)naphthalen-2-amine], in series [1], the “IV (dose 2 mg/kg) (AUC/D) (h*mg/mL)” value is 993. Further, the “PO (dose 10 mg/kg) (AUC/D) (h*mg/mL)” value in series [1] (oral) came out at 141. For the same compound, the IC50 in series [2] was less than 50 nM.

Regarding `[2H]C([2H])(Oc1nc(N2CCCC[C@H]3[C@H](F)[C@H]32)c2cnc(-c3cc(N)cc4ccc(F)c(C#C)c34)c(F)c2n1)[C@@]12CCCN1C[C@H](F)C2` [Example 82, 5-Ethynyl-6-fluoro-4-(8-fluoro-4-((1S,7R,8S)-8-fluoro-2-azabicyclo[5.1.0]octan-2-yl)-2-(((2R,7aS)-2-fluorotetrahydro-1H-pyrrolizin-7a(5H)-yl)methoxy-d2)pyrido[4,3-d]pyrimidin-7-yl)naphthalen-2-amine], in series [1], the “IV (dose 2 mg/kg) (AUC/D) (h*mg/mL)” value came to 490. The “PO (dose 10 mg/kg) (AUC/D) (h*mg/mL)” value in series [1] (oral) worked out at 115. The IC50 in series [2] is less than 50 nM.

In the case of `[2H]C([2H])(Oc1nc(N2CCOC[C@H]3[C@H](F)[C@H]32)c2cnc(-c3cc(N)cc4ccc(F)c(C#C)c34)c(F)c2n1)[C@@]12CCCN1C[C@H](F)C2` [Example 87, 5-Ethynyl-6-fluoro-4-(8-fluoro-4-((1S,7S,8S)-8-fluoro-5-oxa-2-azabicyclo[5.1.0]octan-2-yl)-2-(((2R,7aS)-2-fluorotetrahydro-1H-pyrrolizin-7a(5H)-yl)methoxy-d2)pyrido[4,3-d]pyrimidin-7-yl)naphthalen-2-amine], the “IV (dose 2 mg/kg) (AUC/D) (h*mg/mL)” value in series [1] turned out to be 494. Moreover, the “PO (AUC/D) (h*mg/mL), dose 30 mg/kg” value in series [1] (oral, dose 30 mg/kg) came to 122. Further, the IC50 in series [2] is less than 50 nM.
